Test results from article PMC3329467, “Stereoselective Regulations of P-Glycoprotein by Ginsenoside Rh2 Epimers and the Potential Mechanisms From the View of Pharmacokinetics” (PLoS ONE, 2012).
Read-outs that look alike come from different tables or passages of the source. One block for each compound: values may come before it.

Key:
P-gp [1] = experiment: Effects of Rh2 epimers on oral pharmacokinetics of P-gp substrate digoxin in rats; format: in vivo, rat
Protocol: The rats were divided into five groups with five each. One group of rats received i.g. single dose of the vehicle (0.5% CMC-Na) serving as the control. Two groups were i.g. administered 20(S)-Rh2 suspended in 0.5% CMC-Na at the doses of 5 mg/kg and 50 mg/kg respectively, while another two groups i.g. administration of 20(R)-Rh2 suspended in 0.5% CMC-Na at the doses of 5 mg/kg and 50 mg/kg respectively. Two hours later, P-gp substrate, digoxin (0.25 mg/kg) was given to the rats by i.g. administration. Blood samples were collected before the P-gp substrate dosing and at 0.08, 0.17, 0.25, 0.5, 1, 2, 3, 6, 8 h post-digoxin-dosing. Plasma was obtained by centrifugation at 5000 g for 10 min and stored at −20°C before analysis. Plasma concentrations of digoxin were determined as described previously.
(§1) The pharmacokinetic parameters of digoxin, 20(S)-Rh2 and 20(R)-Rh2 in rats were obtained by noncompartmental analysis using DAS (Drug and Statistics, version 2.1, Chinese Pharmacological Society). The area under the plasma concentration-time curve (AUC) was calculated using the trapezoidal method.

osteoclasts = details: cited from earlier work
[2] = Oral pharmacokinetics of 20(S)-Rh2 and 20(R)-Rh2 in rats (stereoselective LC-MS); format: in vivo, rat; details: for Cmax / Tmax / MRT last: Sprague-Dawley, rat, po; for MRT last: read-out: MRT 0-t (converted); for Inverted proportion (chiral inversion): after oral administration of a single configuration of Rh2, rats; for Detection in plasma: after oral administration of 20(R)-Rh2, rats
Protocol: To investigate the differences of pharmacokinetic characteristics between 20(S)-Rh2 and 20(R)-Rh2, rats were divided into 2 groups with five rats for each group. One received a single dose of 20(S)-Rh2 intragastrically at 25 mg/kg suspended in 0.5% CMC-Na, while the other received 20(R)-Rh2 at the same dosage. Blood samples were collected at 0, 30, 60, 180, 240, 300, 360, 480, 660 and 840 min after oral administration into heparinized tubes. Plasma was obtained by centrifugation at 5000 g for 10 min and stored at −20°C before analysis.
The 20(S)-Rh2, 20(R)-Rh2 and the deglycosylation metabolites 20(S)-Ppd and 20(R)-Ppd were quantified simultaneously by reversed-phase LC-MS. An aliquot of 100 µl sample spiked with digitoxin as internal standard was extracted by 1 ml ethylacetate. The analysis was performed on Finnigan LC-MS system (Thermo Electron, San Jose, CA, USA) with a Lux Cellulose-1 Chiral Column (250×4.6 mm, 5 µm, Phenomenex, USA). The column and autosampler tray temperatures were 40 and 4°C, respectively. The mobile phase was consisted of methanol, acetonitrile and 0.1% formic acid with gradient elution (Table 5). Mass spectrometer was operated in positive ESI mode. MS parameters were as follows: spray voltage, 5.0 kV; sheath gas/auxiliary gas, nitrogen; sheath gas pressure, 35×10^5 Pa; auxiliary gas pressure, 20×10^5 Pa; ion transfer capillary temperature, 300°C. Quantification was performed using SIM mode with [M+Na]^+ peak: m/z 645.4 for Rh2; m/z 483.3 for Ppd; m/z 787.5 for digitoxin (internal standard).
as §1

P-gp [3] = target: T1, P-gp (Homo sapiens, UniProt P08183); experiment: P-gp mediated bidirectional transport of digoxin across Caco-2 cell monolayers; format: cell-based
T1 construct: host or cells: Caco-2 cell monolayers
Protocol: The Caco-2 cell transport model was established as described previously. Then, Hank's balanced salt solution (HBSS) containing 20(S)-Rh2, 20(R)-Rh2, 20(S)-Ppd, 20(R)-Ppd or 0.1% DMSO (control) was loaded into both apical and basolateral chambers. After incubation at 37°C for 1 h, 5 µM digoxin was added to either apical or basolateral side to evaluate the transport in absorptive and secretory direction respectively. After incubation for just another 2 h, samples were taken from the receiving chamber for analysis. Verapamil (10 µM) was used as a positive control. Digoxin was determined by LC-MS/MS. All experiments were conducted in triplicate.
For the transport assay, the apparent permeability coefficient (Papp) and efflux ratio (ER) were calculated as reported previously.

osteoclastgenesis = details: cited from earlier work
[4] = design: method as in PMID 19524010; details: 1–9 mg/kg i.g., rats; cited from earlier work
[5] = test system: Ca^2+, K^+ and Na^+ channel; design: method as in PMID 15650337, PMID 15979567; details: dose- and voltage-dependent; cited from earlier work
P-glycoprotein (P-gp) = details: in vitro and in vivo; cited from earlier work
[6] = test system: androgen-dependent and –independent prostate cancer cells; design: method as in PMID 20554003; details: cited from earlier work
human fecal microflora = test system: human fecal microflora; design: method as in PMID 11824558; details: cited from earlier work
[7] = in vivo, 25 mg/kg, after oral administration of the same epimer, rats
[8] = in vivo, 25 mg/kg, plasma analyte after i.g. 20(R)-Rh2 25 mg/kg, rats
[9] = in vivo, 25 mg/kg, plasma analyte after i.g. 20(S)-Rh2 25 mg/kg, rats
[10] = plasma analyte after i.g. 20(R)-Rh2 25 mg/kg, rats
[11] = plasma analyte after i.g. 20(S)-Rh2 25 mg/kg, rats
[12] = 1 h preincubation, 5 µM digoxin 2 h, concentration series

T1 sequence (P08183 whole entry): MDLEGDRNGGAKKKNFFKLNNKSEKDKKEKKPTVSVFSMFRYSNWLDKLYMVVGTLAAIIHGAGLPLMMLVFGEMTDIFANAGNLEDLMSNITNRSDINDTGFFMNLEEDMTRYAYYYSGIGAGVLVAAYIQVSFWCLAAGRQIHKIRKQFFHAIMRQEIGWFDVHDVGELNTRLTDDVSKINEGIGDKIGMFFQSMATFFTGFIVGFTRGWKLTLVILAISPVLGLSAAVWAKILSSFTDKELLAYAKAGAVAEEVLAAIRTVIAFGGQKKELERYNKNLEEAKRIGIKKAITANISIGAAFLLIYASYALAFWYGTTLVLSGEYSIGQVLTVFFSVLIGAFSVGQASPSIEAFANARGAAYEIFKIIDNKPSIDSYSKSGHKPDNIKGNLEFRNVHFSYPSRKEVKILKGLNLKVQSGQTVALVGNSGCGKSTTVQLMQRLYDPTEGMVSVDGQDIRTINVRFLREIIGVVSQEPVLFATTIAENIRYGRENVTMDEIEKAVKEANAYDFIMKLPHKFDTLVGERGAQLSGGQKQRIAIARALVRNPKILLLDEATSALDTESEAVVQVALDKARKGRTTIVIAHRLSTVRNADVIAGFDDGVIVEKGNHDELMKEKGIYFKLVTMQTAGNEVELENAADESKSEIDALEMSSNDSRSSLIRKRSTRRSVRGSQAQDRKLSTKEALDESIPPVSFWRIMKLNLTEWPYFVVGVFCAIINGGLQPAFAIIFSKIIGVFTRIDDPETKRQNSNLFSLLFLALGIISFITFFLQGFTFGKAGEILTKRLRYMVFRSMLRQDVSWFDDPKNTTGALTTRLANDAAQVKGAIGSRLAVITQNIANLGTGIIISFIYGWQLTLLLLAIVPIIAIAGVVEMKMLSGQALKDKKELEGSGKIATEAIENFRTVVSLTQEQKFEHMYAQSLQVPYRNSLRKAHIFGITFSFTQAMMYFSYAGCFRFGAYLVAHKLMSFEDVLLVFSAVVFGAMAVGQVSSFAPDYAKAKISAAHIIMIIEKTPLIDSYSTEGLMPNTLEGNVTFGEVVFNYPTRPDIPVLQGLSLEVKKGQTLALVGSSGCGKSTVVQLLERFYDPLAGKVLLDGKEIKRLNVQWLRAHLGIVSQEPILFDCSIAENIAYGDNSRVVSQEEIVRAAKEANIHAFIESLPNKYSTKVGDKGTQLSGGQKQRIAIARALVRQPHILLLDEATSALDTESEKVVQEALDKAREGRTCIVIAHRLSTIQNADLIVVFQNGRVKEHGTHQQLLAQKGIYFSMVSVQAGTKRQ

SMILES: CC(C)=CCC[C@@](C)(O)[C@H]1CC[C@]2(C)[C@@H]1[C@H](O)C[C@@H]1[C@@]3(C)CC[C@H](O[C@@H]4O[C@H](CO)[C@@H](O)[C@H](O)[C@H]4O)C(C)(C)[C@@H]3CC[C@]12C [20(R)-Rh2, 20(R)-ginsenoside Rh2]
- Effect on AUC and Cmax of digoxin (P-gp [1]; 5 mg/kg i.g. prior to i.g. digoxin): significantly enhanced
- Effect on absorption of digoxin compared with control group (P-gp [1]; 50 mg/kg i.g. prior to i.g. digoxin): not changed significantly
- Cytotoxicity in osteoclasts (osteoclasts): without any cytotoxicity
- Cmax [2, 7]: ≤ 50 nM
- Cmax [2, 8]: 29 ± 5 ng/mL
- Tmax [2, 8]: 4.75 h
- MRT last [2, 8]: 4.65 h
- Cmax [2, 9]: 17 ± 2 ng/mL
- Tmax [2, 9]: 2.1 h
- MRT last [2, 9]: 2.38 h
- Inverted proportion (chiral inversion) [2]: ~10%
- AUC 0-t [2, 10]: 13204 ± 2322 µg·min/L
- AUC 0-t [2, 11]: 8648 ± 1871 µg·min/L
- Effect on efflux ratio of digoxin across Caco-2 cell monolayers (P-gp [3]; 1 µM, 5 µM digoxin): significantly lowered the efflux ratio of digoxin
- Effect on efflux ratio of digoxin across Caco-2 cell monolayers (P-gp [3]; elevated concentrations, 5 µM digoxin): the efflux ratio of digoxin were restored
- Osteoclastgenesis inhibition (osteoclastgenesis): selective osteoclastgenesis inhibitor

SMILES: CC(C)=CCC[C@](C)(O)[C@H]1CC[C@]2(C)[C@@H]1[C@H](O)C[C@@H]1[C@@]3(C)CC[C@H](O[C@@H]4O[C@H](CO)[C@@H](O)[C@H](O)[C@H]4O)C(C)(C)[C@@H]3CC[C@]12C [Rh2, ginsenoside Rh2]
- Absolute bioavailability [4]: 4.0–6.4%

SMILES: CC(C)=CCC[C@](C)(O)[C@H]1CC[C@]2(C)[C@@H]1[C@H](O)C[C@@H]1[C@@]3(C)CC[C@H](O)C(C)(C)[C@@H]3CC[C@]12C [20(S)-Ppd, 20(S)-protopanaxadiol]
- Cmax [2, 11]: 85 ± 7 ng/mL
- Tmax [2, 11]: 8.67 h
- MRT last [2, 11]: 9.05 h
- AUC 0-t [2, 11]: 35129 ± 2261 µg·min/L
- Effect on efflux ratio of digoxin across Caco-2 cell monolayers (P-gp [3]; [12]): lowered the efflux ratio of digoxin across Caco-2 cell monolayers concentration-dependently

- Cmax (P-gp [1]; Sprague-Dawley (SD), rat, plasma, po, digoxin 0.25 mg/kg i.g., control (no Rh2)): 9.9 ± 2.6 nM
- AUC 0-t (P-gp [1]; Sprague-Dawley (SD), rat, plasma, po, digoxin 0.25 mg/kg i.g., control (no Rh2), read-out: AUC 0–12 of digoxin): 0.0154 ± 0.0029 µM·h
- MRT last (P-gp [1]; Sprague-Dawley (SD), rat, plasma, po, digoxin 0.25 mg/kg i.g., control (no Rh2), read-out: MRT0–12 of digoxin): 1.7 ± 0.6 h
- half-life (P-gp [1]; Sprague-Dawley (SD), rat, plasma, po, digoxin 0.25 mg/kg i.g., control (no Rh2), read-out: t1/2 of digoxin (converted)): 1.2 ± 0.4 h
SMILES: C[C@H]1O[C@@H](O[C@H]2[C@@H](O)C[C@H](O[C@H]3[C@@H](O)C[C@H](O[C@H]4CC[C@@]5(C)[C@H](CC[C@@H]6[C@@H]5C[C@@H](O)[C@]5(C)[C@@H](C7=CC(=O)OC7)CC[C@]65O)C4)O[C@@H]3C)O[C@@H]2C)C[C@H](O)[C@@H]1O [Digoxin]

SMILES: CC(C)=CCC[C@@](C)(O)[C@H]1CC[C@]2(C)[C@@H]1[C@H](O)C[C@@H]1[C@@]3(C)CC[C@H](O)C(C)(C)[C@@H]3CC[C@]12C [Ppd, protopanaxadiol]
- Detection in plasma [2]: no Ppd was found

SMILES: CC(C)=CCC[C@](C)(O)[C@H]1CC[C@]2(C)[C@@H]1[C@H](O)C[C@@H]1[C@@]3(C)CC[C@H](O[C@@H]4O[C@H](CO)[C@@H](O)[C@H](O)[C@H]4O[C@@H]4O[C@H](CO)[C@@H](O)[C@H](O)[C@H]4O)C(C)(C)[C@@H]3CC[C@]12C [20(R)-ginsenoside Rg3]
- Inhibition of Ca^2+, K^+ and Na^+ channel currents [5]: not

SMILES: CC(C)=CCC[C@](C)(O)[C@H]1CC[C@]2(C)[C@@H]1[C@H](O)C[C@@H]1[C@@]3(C)CC[C@H](O[C@@H]4O[C@H](CO)[C@@H](O)[C@H](O)[C@H]4O)C(C)(C)[C@@H]3CC[C@]12C [20(S)-Rh2, 20(S)-ginsenoside Rh2]
- Cytotoxicity in osteoclasts (osteoclasts): strong cytotoxicity
- Cmax [2, 7]: ~1000 nM
- Cmax [2, 8]: 5 ± 1 ng/mL
- Tmax [2, 8]: 2.33 h
- MRT last [2, 8]: 2.2 h
- Cmax [2, 9]: 572 ± 162 ng/mL
- Tmax [2, 9]: 3.45 h
- MRT last [2, 9]: 3.35 h
- Inverted proportion (chiral inversion) [2]: ~10%
- AUC 0-t [2, 10]: 1193 ± 230 µg·min/L
- AUC 0-t [2, 11]: 149888 ± 40725 µg·min/L
- AUC higher than that of 20(R)-Rh2 ([2]; same oral dosage, rats): 10 fold
- Effect on efflux ratio of digoxin across Caco-2 cell monolayers (P-gp [3]; [12]): decreased the efflux ratio of digoxin crossing Caco-2 cell monolayers in a concentration-dependent manner
- Osteoclastgenesis inhibition (osteoclastgenesis): weak osteoclastgenesis inhibition
- P-gp inhibition (P-glycoprotein (P-gp)): effective P-gp inhibitor both in vitro and in vivo
- Inhibition of proliferation of prostate cancer cells [6]: inhibited the proliferation

SMILES: CC(C)=CCC[C@](C)(O)[C@H]1CC[C@]2(C)[C@@H]1[C@H](O)C[C@@H]1[C@@]3(C)CC[C@H](O[C@@H]4O[C@H](CO)[C@@H](O)[C@H](O)[C@H]4O[C@@H]4O[C@H](CO)[C@@H](O)[C@H](O)[C@H]4O)C(C)(C)[C@@H]3CC[C@]12C [20(S)-ginsenoside Rg3]
- Amount transformed to 20(S)-ginsenoside Rh2, higher than 20(R)-Rg3 to 20(R)-Rh2 (human fecal microflora): 19 fold
- Inhibition of Ca^2+, K^+ and Na^+ channel currents [5]: inhibited

SMILES: CC(C)=CCC[C@@](C)(O)[C@H]1CC[C@]2(C)[C@@H]1[C@H](O)C[C@@H]1[C@@]3(C)CC[C@H](O)C(C)(C)[C@@H]3CC[C@]12C [20(R)-Ppd, 20(R)-protopanaxadiol]
- Detection in plasma [2]: not detected
- Effect on efflux ratio of digoxin across Caco-2 cell monolayers (P-gp [3]; [12]): lowered the efflux ratio of digoxin across Caco-2 cell monolayers concentration-dependently
